Experimental data published in ChEMBL document CHEMBL4257522, “Synthesis and preliminary anti-inflammatory and anti-bacterial evaluation of some diflunisal aza-analogs” (Medchemcomm, 2018).
The source made the active and inactive calls. The rule behind the calls is not given here.

What was measured:
Macrophage cell line [1] = test: Antiinflammatory activity in human PBMC-differentiated macrophages assessed as inhibition of LPS-induced prostaglandin production at 0.01 to 10 uM measured after 24 hrs by ELISA; format: functional, cell-based
Macrophage cell line [2] = test: Induction of TNFalpha production in human PBMC-differentiated macrophages after 24 hrs by ELISA; format: cell-based
Macrophage cell line [3] = test: Induction of IL-8 production in human PBMC-differentiated macrophages after 24 hrs by ELISA; format: cell-based
Macrophage cell line [4] = test: Induction of IL-1beta production in human PBMC-differentiated macrophages after 24 hrs by ELISA; format: cell-based
Macrophage cell line [5] = test: Induction of prostaglandin production in human PBMC-differentiated macrophages after 24 hrs by ELISA; format: cell-based
Klebsiella pneumoniae [6] = test: Toxicity in Klebsiella pneumoniae ATCC 13883 up to 32 uM measured after 16 hrs; format: organism-based
Enterococcus faecium [7] = test: Toxicity in Enterococcus faecium ATCC 700221 up to 32 uM measured after 16 hrs; format: organism-based; settings: in vitro
Pseudomonas aeruginosa [8] = test: Toxicity in Pseudomonas aeruginosa ATCC BAA-2108 up to 32 uM measured after 16 hrs; format: organism-based; settings: in vitro
Escherichia coli [9] = test: Toxicity in Escherichia coli ATCC 43894 up to 32 uM measured after 16 hrs; format: organism-based
Staphylococcus aureus [10] = test: Potentiation of methicillin-induced antibacterial activity against Staphylococcus aureus ATCC 33592 assessed as minimum modulatory concentration up to 32 uM measured after 16 hrs in presence of MIC/4 methicillin; format: functional; settings: ATCC 33592, 16 h, read-out: MEC
Staphylococcus aureus [11] = test: Potentiation of geneticin-induced antibacterial activity against Staphylococcus aureus ATCC 33592 assessed as minimum modulatory concentration up to 32 uM measured after 16 hrs in presence of MIC/4 geneticin; format: functional; settings: ATCC 33592, 16 h, read-out: MEC
Staphylococcus aureus [12] = test: Potentiation of erythromycin-induced antibacterial activity against Staphylococcus aureus ATCC 33592 assessed as minimum modulatory concentration up to 32 uM measured after 16 hrs in presence of MIC/4 erythromycin; format: functional; settings: ATCC 33592, 16 h, read-out: MEC
Streptococcus pyogenes [13] = test: Potentiation of methicillin-induced antibacterial activity against Streptococcus pyogenes ATCC 14289 assessed as minimum modulatory concentration up to 32 uM measured after 16 hrs in presence of MIC/4 methicillin; format: functional; settings: ATCC 14289, 16 h, read-out: MEC
Streptococcus pyogenes [14] = test: Potentiation of ciprofloxacin-induced antibacterial activity against Streptococcus pyogenes ATCC 14289 assessed as minimum modulatory concentration up to 32 uM measured after 16 hrs in presence of MIC/4 ciprofloxacin; format: functional; settings: ATCC 14289, 16 h, read-out: MEC
Streptococcus pyogenes [15] = test: Potentiation of tetracycline-induced antibacterial activity against Streptococcus pyogenes ATCC 14289 assessed as minimum modulatory concentration up to 32 uM measured after 16 hrs in presence of MIC/4 tetracycline; format: functional; settings: ATCC 14289, 16 h, read-out: MEC
Streptococcus pyogenes [16] = test: Potentiation of erythromycin-induced antibacterial activity against Streptococcus pyogenes ATCC 14289 assessed as minimum modulatory concentration up to 32 uM measured after 16 hrs in presence of MIC/4 erythromycin; format: functional; settings: ATCC 14289, 16 h, read-out: MEC
Klebsiella pneumoniae [17] = test: Potentiation of methicillin-induced antibacterial activity against Klebsiella pneumoniae ATCC 13883 assessed as minimum modulatory concentration up to 32 uM measured after 16 hrs in presence of MIC/4 methicillin; format: functional; settings: ATCC 13883, 16 h, read-out: MEC
Klebsiella pneumoniae [18] = test: Potentiation of geneticin-induced antibacterial activity against Klebsiella pneumoniae ATCC 13883 assessed as minimum modulatory concentration up to 32 uM measured after 16 hrs in presence of MIC/4 geneticin; format: functional; settings: ATCC 13883, 16 h, read-out: MEC
Klebsiella pneumoniae [19] = test: Potentiation of ciprofloxacin-induced antibacterial activity against Klebsiella pneumoniae ATCC 13883 assessed as minimum modulatory concentration up to 32 uM measured after 16 hrs in presence of MIC/4 ciprofloxacin; format: functional; settings: ATCC 13883, 16 h, read-out: MEC
Klebsiella pneumoniae [20] = test: Potentiation of tetracycline-induced antibacterial activity against Klebsiella pneumoniae ATCC 13883 assessed as minimum modulatory concentration up to 32 uM measured after 16 hrs in presence of MIC/4 tetracycline; format: functional; settings: ATCC 13883, 16 h, read-out: MEC
Klebsiella pneumoniae [21] = test: Potentiation of erythromycin-induced antibacterial activity against Klebsiella pneumoniae ATCC 13883 assessed as minimum modulatory concentration up to 32 uM measured after 16 hrs in presence of MIC/4 erythromycin; format: functional; settings: ATCC 13883, 16 h, read-out: MEC
Enterococcus faecium [22] = test: Potentiation of methicillin-induced antibacterial activity against Enterococcus faecium ATCC 700221 assessed as minimum modulatory concentration up to 32 uM measured after 16 hrs in presence of MIC/4 methicillin; format: functional; settings: ATCC 700221, 16 h, read-out: MEC
Enterococcus faecium [23] = test: Potentiation of geneticin-induced antibacterial activity against Enterococcus faecium ATCC 700221 assessed as minimum modulatory concentration up to 32 uM measured after 16 hrs in presence of MIC/4 geneticin; format: functional; settings: ATCC 700221, 16 h, read-out: MEC
Enterococcus faecium [24] = test: Potentiation of ciprofloxacin-induced antibacterial activity against Enterococcus faecium ATCC 700221 assessed as minimum modulatory concentration up to 32 uM measured after 16 hrs in presence of MIC/4 ciprofloxacin; format: functional; settings: ATCC 700221, 16 h, read-out: MEC
Pseudomonas aeruginosa [25] = test: Potentiation of methicillin-induced antibacterial activity against Pseudomonas aeruginosa ATCC BAA-2108 assessed as minimum modulatory concentration up to 32 uM measured after 16 hrs in presence of MIC/4 methicillin; format: functional; settings: ATCC BAA-2108, 16 h, read-out: MEC
Pseudomonas aeruginosa [26] = test: Potentiation of geneticin-induced antibacterial activity against Pseudomonas aeruginosa ATCC BAA-2108 assessed as minimum modulatory concentration up to 32 uM measured after 16 hrs in presence of MIC/4 geneticin; format: functional; settings: ATCC BAA-2108, 16 h, read-out: MEC
Pseudomonas aeruginosa [27] = test: Potentiation of ciprofloxacin-induced antibacterial activity against Pseudomonas aeruginosa ATCC BAA-2108 assessed as minimum modulatory concentration up to 32 uM measured after 16 hrs in presence of MIC/4 ciprofloxacin; format: functional; settings: ATCC BAA-2108, 16 h, read-out: MEC
Pseudomonas aeruginosa [28] = test: Potentiation of erythromycin-induced antibacterial activity against Pseudomonas aeruginosa ATCC BAA-2108 assessed as minimum modulatory concentration up to 32 uM measured after 16 hrs in presence of MIC/4 erythromycin; format: functional; settings: ATCC BAA-2108, 16 h, read-out: MEC
Escherichia coli [29] = test: Potentiation of methicillin-induced antibacterial activity against Escherichia coli ATCC 43894 assessed as minimum modulatory concentration up to 32 uM measured after 16 hrs in presence of MIC/4 methicillin; format: functional; settings: ATCC 43894, 16 h, read-out: MEC
Escherichia coli [30] = test: Potentiation of geneticin-induced antibacterial activity against Escherichia coli ATCC 43894 assessed as minimum modulatory concentration up to 32 uM measured after 16 hrs in presence of MIC/4 geneticin; format: functional; settings: ATCC 43894, 16 h, read-out: MEC
Escherichia coli [31] = test: Potentiation of ciprofloxacin-induced antibacterial activity against Escherichia coli ATCC 43894 assessed as minimum modulatory concentration up to 32 uM measured after 16 hrs in presence of MIC/4 ciprofloxacin; format: functional; settings: ATCC 43894, 16 h, read-out: MEC
Escherichia coli [32] = test: Potentiation of tetracycline-induced antibacterial activity against Escherichia coli ATCC 43894 assessed as minimum modulatory concentration up to 32 uM measured after 16 hrs in presence of MIC/4 tetracycline; format: functional; settings: ATCC 43894, 16 h, read-out: MEC
Escherichia coli [33] = test: Potentiation of erythromycin-induced antibacterial activity against Escherichia coli ATCC 43894 assessed as minimum modulatory concentration up to 32 uM measured after 16 hrs in presence of MIC/4 erythromycin; format: functional; settings: ATCC 43894, 16 h, read-out: MEC

Row | SMILES | inhibition (Macrophage cell line [1]) | Activity (Macrophage cell line [2]) | Activity (Macrophage cell line [3]) | Activity (Macrophage cell line [4]) | Activity (Macrophage cell line [5]) | Activity (Klebsiella pneumoniae [6]) | Activity (Enterococcus faecium [7]) | Activity (Pseudomonas aeruginosa [8]) | Activity (Escherichia coli [9]) | minimal effective concentration (Staphylococcus aureus [10]) | minimal effective concentration (Staphylococcus aureus [11]) | minimal effective concentration (Staphylococcus aureus [12]) | minimal effective concentration (Streptococcus pyogenes [13]) | minimal effective concentration (Streptococcus pyogenes [14]) | minimal effective concentration (Streptococcus pyogenes [15]) | minimal effective concentration (Streptococcus pyogenes [16]) | minimal effective concentration (Klebsiella pneumoniae [17]) | minimal effective concentration (Klebsiella pneumoniae [18]) | minimal effective concentration (Klebsiella pneumoniae [19]) | minimal effective concentration (Klebsiella pneumoniae [20]) | further results
1 | Cc1nc(-c2ccccc2)c(O)cc1C(=O)O | inactive | Non-Toxic | Non-Toxic | Non-Toxic | Non-Toxic | Non-Toxic | Non-Toxic | Non-Toxic | Non-Toxic | 0.5 µM | 4 µM | 4 µM | 4 µM | > 32 µM | 4 µM | 4 µM | > 32 µM | > 32 µM | > 32 µM | > 32 µM | minimal effective concentration (Klebsiella pneumoniae [21]): > 32 µM; minimal effective concentration (Enterococcus faecium [22]): 0.5 µM; minimal effective concentration (Enterococcus faecium [23]): 8 µM; minimal effective concentration (Enterococcus faecium [24]): > 32 µM; minimal effective concentration (Pseudomonas aeruginosa [25]): 16 µM; minimal effective concentration (Pseudomonas aeruginosa [26]): > 32 µM; minimal effective concentration (Pseudomonas aeruginosa [27]): 4 µM; minimal effective concentration (Pseudomonas aeruginosa [28]): 4 µM; minimal effective concentration (Escherichia coli [29]): > 32 µM; minimal effective concentration (Escherichia coli [30]): > 32 µM; minimal effective concentration (Escherichia coli [31]): > 32 µM; minimal effective concentration (Escherichia coli [32]): > 32 µM; minimal effective concentration (Escherichia coli [33]): > 32 µM
2 | O=C(O)c1cc(O)cnc1-c1ccccc1 | inactive | Non-Toxic | Non-Toxic | Non-Toxic | Non-Toxic | Non-Toxic | Non-Toxic | Non-Toxic | Non-Toxic | 8 µM | 16 µM | 4 µM | 1 µM | > 32 µM | 2 µM | 4 µM | > 32 µM | > 32 µM | > 32 µM | > 32 µM | minimal effective concentration (Klebsiella pneumoniae [21]): > 32 µM; minimal effective concentration (Enterococcus faecium [22]): 2 µM; minimal effective concentration (Enterococcus faecium [23]): 8 µM; minimal effective concentration (Enterococcus faecium [24]): > 32 µM; minimal effective concentration (Pseudomonas aeruginosa [25]): 16 µM; minimal effective concentration (Pseudomonas aeruginosa [26]): > 32 µM; minimal effective concentration (Pseudomonas aeruginosa [27]): 8 µM; minimal effective concentration (Pseudomonas aeruginosa [28]): 8 µM; minimal effective concentration (Escherichia coli [29]): > 32 µM; minimal effective concentration (Escherichia coli [30]): > 32 µM; minimal effective concentration (Escherichia coli [31]): > 32 µM; minimal effective concentration (Escherichia coli [32]): > 32 µM; minimal effective concentration (Escherichia coli [33]): > 32 µM
3 | COc1cccc(-c2cc(C(=O)O)c(O)cn2)c1 | inactive | Non-Toxic | Non-Toxic | Non-Toxic | Non-Toxic | Non-Toxic | Non-Toxic | Non-Toxic | Non-Toxic | 16 µM | > 32 µM | > 32 µM | > 32 µM | > 32 µM | > 32 µM | > 32 µM | > 32 µM | > 32 µM | > 32 µM | > 32 µM | minimal effective concentration (Klebsiella pneumoniae [21]): > 32 µM; minimal effective concentration (Enterococcus faecium [22]): 16 µM; minimal effective concentration (Enterococcus faecium [23]): > 32 µM; minimal effective concentration (Enterococcus faecium [24]): > 32 µM; minimal effective concentration (Pseudomonas aeruginosa [25]): > 32 µM; minimal effective concentration (Pseudomonas aeruginosa [26]): > 32 µM; minimal effective concentration (Pseudomonas aeruginosa [27]): > 32 µM; minimal effective concentration (Pseudomonas aeruginosa [28]): > 32 µM; minimal effective concentration (Escherichia coli [29]): > 32 µM; minimal effective concentration (Escherichia coli [30]): > 32 µM; minimal effective concentration (Escherichia coli [31]): > 32 µM; minimal effective concentration (Escherichia coli [32]): > 32 µM; minimal effective concentration (Escherichia coli [33]): > 32 µM
